# Measured values from patent publication US20150224066A1 (priority 2012, published 2015).
# Values joined by “and” are separate entries in the source; they are usually repeats but may differ in a detail not shown here. Identical values can stand only once. “Also recorded” adds a separate entry of the source. Like-named read-outs stand apart in the source and are kept apart here.
# Tests used:
# S. aureus MN8 [1] = assay type: cell-based, Staphylococcus aureus
# B. anthracis Sterne = assay type: cell-based, Bacillus anthracis; details: for antimicrobial activity / growth inhibition: 24 h incubation; for bactericidal concentration / bacteriostatic concentration: 24 h
# [2] = test system: Streptococcus pyogenes MNWA; assay type: cell-based
# [3] = test system: Streptococcus agalactiae MNSI; assay type: cell-based
# S. aureus MN8 [4] = assay type: cell-based, Staphylococcus aureus; remark: listed apart in the source
# [5] = test system: TSST-1 production by S. aureus MN8; assay type: cell-based, Staphylococcus aureus
# [6] = test system: TSST-1 production by S. aureus CDC587; assay type: cell-based, Staphylococcus aureus
# [7] = test system: TSST-1 production by S. aureus MNPE; assay type: cell-based, Staphylococcus aureus
# S. aureus CDC587 = assay type: cell-based, Staphylococcus aureus
# S. aureus MNPE = assay type: cell-based, Staphylococcus aureus
# S. aureus MN8 [8] = assay type: cell-based, Staphylococcus aureus; remark: listed apart in the source
# S. aureus = assay type: cell-based, Staphylococcus aureus
smiles,measurement,setting,value
"O=C1C=CC(=O)c2ccccc21 [1,4-naphthoquinone]",antimicrobial activity / growth inhibition,S. aureus MN8 [1],strong antimicrobial activity
same,fold less active than menadione,S. aureus MN8 [1],approximately 2 fold
same,fold less active than menadione,B. anthracis Sterne,approximately 2 fold
same,antimicrobial activity / growth inhibition,B. anthracis Sterne,strong antimicrobial activity
same,antimicrobial activity / growth inhibition,[2],strong antimicrobial activity
same,fold less active than menadione,[2],approximately 2 fold
same,antimicrobial activity / growth inhibition,[3],strong antimicrobial activity
same,fold less active than menadione,[3],approximately 2 fold
"CCCCCCCCCCCC(=O)OCC(O)CO (stereo not drawn) [GML, glycerol monolaurate]",growth inhibition of S. aureus MN8,S. aureus MN8 [4],did not inhibit; also recorded: not inhibitory
COC1=C(OC)C(=O)C(C/C=C(\C)CCC=C(C)C)=C(C)C1=O [coenzyme Q2],bactericidal concentration (≧3 log drop in CFUs/ml),S. aureus MN8 [1],50 μg/ml
same,bacteriostatic concentration (<3 log drop in CFUs/ml),S. aureus MN8 [1],25 μg/ml
same,bactericidal concentration,B. anthracis Sterne,≥ 25 µg/mL
same,bacteriostatic concentration,B. anthracis Sterne,12.5 µg/mL
COC1=C(OC)C(=O)C(C/C=C(\C)CC/C=C(\C)CCC=C(C)C)=C(C)C1=O [coenzyme Q3],bactericidal concentration (≧3 log drop in CFUs/ml),S. aureus MN8 [1],50 μg/ml
same,bacteriostatic concentration (<3 log drop in CFUs/ml),S. aureus MN8 [1],25 μg/ml
same,bactericidal concentration,B. anthracis Sterne,50 µg/mL
same,bacteriostatic concentration,B. anthracis Sterne,25 µg/mL
"COC1=C(OC)C(=O)C(C/C=C(\C)CC/C=C(\C)CC/C=C(\C)CC/C=C(\C)CC/C=C(\C)CC/C=C(\C)CC/C=C(\C)CC/C=C(\C)CC/C=C(\C)CCC=C(C)C)=C(C)C1=O [coenzyme Q10, reference compound]",antimicrobial activity / growth inhibition,S. aureus MN8 [1],no antimicrobial activity
same,antimicrobial activity / growth inhibition,B. anthracis Sterne,no antimicrobial activity
same,antimicrobial activity / growth inhibition,[2],lacked antimicrobial activity
same,antimicrobial activity / growth inhibition,[3],lacked antimicrobial activity
same,inhibition of TSST-1 production,[5],did not inhibit
same,inhibition of TSST-1 production,[6],did not inhibit
same,inhibition of TSST-1 production,[7],did not inhibit
CC1=CC(=O)c2ccccc2C1=O [menadione],antimicrobial activity / growth inhibition,S. aureus MN8 [1],inhibits the growth; also recorded: strong antimicrobial activity
same,antimicrobial activity,S. aureus CDC587,comparably bacteriostatic and bactericidal
same,antimicrobial activity,S. aureus MNPE,comparably bacteriostatic and bactericidal
same,bactericidal concentration,B. anthracis Sterne,≥ 25 µg/mL
same,bacteriostatic concentration,B. anthracis Sterne,6.25 µg/mL and 12.5 µg/mL
same,antimicrobial activity / growth inhibition,B. anthracis Sterne,strong antimicrobial activity
same,antimicrobial activity / growth inhibition,B. anthracis Sterne; listed as Menadione,inhibits the growth
same,antimicrobial activity / growth inhibition,[2],inhibits the growth; also recorded: strong antimicrobial activity
same,bactericidal concentration,[2],50 µg/mL and 100 µg/mL
same,bacteriostatic concentration,[2],25 µg/mL
same,antimicrobial activity / growth inhibition,[3],inhibits the growth; also recorded: strong antimicrobial activity
same,bacteriostatic concentration,[3],6.25 mg/mL and 12.5 mg/mL
same,concentration at which TSST-1 production was completely inhibited (no detectable TSST-1),[5],≥ 3.1 µg/mL
same,doses that failed to inhibit TSST-1 production,[5],< 3.1 µg/mL
same,bactericidal concentration,S. aureus MN8 [8],≥ 50 µg/mL
same,concentration of complete killing,S. aureus MN8 [8],200 µg/mL
same,"difference in bactericidal concentration, anaerobic versus aerobic",S. aureus MN8 [8],4 fold
same,"difference in concentration of complete killing, anaerobic versus aerobic",S. aureus MN8 [8],16 fold
same,growth inhibition when cultured aerobically compared to anaerobically,S. aureus MN8 [8],more effective
same,generation of resistant mutants,S. aureus,failed to generate resistant mutants
"CC1=C(C/C=C(\C)CCC[C@H](C)CCC[C@H](C)CCCC(C)C)C(=O)c2ccccc2C1=O [phylloquinone, reference compound]",antimicrobial activity / growth inhibition,S. aureus MN8 [1],no antimicrobial activity
same,antimicrobial activity / growth inhibition,B. anthracis Sterne,no antimicrobial activity
same,antimicrobial activity / growth inhibition,[2],no antimicrobial activity
same,antimicrobial activity / growth inhibition,[3],no antimicrobial activity
same,inhibition of TSST-1 production,[5],did not inhibit
same,inhibition of TSST-1 production,[6],did not inhibit
same,inhibition of TSST-1 production,[7],did not inhibit
